Values of other authors, collected in PMC5132270 (Cancer Science, 2016).

Key:
[1] = tested on: models of crizotinib resistance; conditions: preclinical studies

## Cc1cc(Nc2ncc(Cl)c(Nc3ccccc3S(=O)(=O)C(C)C)n2)c(OC(C)C)cc1C1CCNCC1 [ceritinib]
ALK+ NSCLC
  median PFS: 7.0 months

## CCc1cc2c(cc1N1CCC(N3CCOCC3)CC1)C(C)(C)c1[nH]c3cc(C#N)ccc3c1C2=O [alectinib]
[1]
  antitumor effect: tumor size reduction
